# Measurements from US7259004B1, “Endophytic streptomycetes from higher plants with biological activity” (Montana State University, priority 2002, dated 2007).
# Where two headings read alike, the source gives them in different places.
# Tests used:
# [1] = solubility in acetonitrile
# [2] = tested on: Staphylococcus aureus ATCC 33591 (MRSA); test: microbroth dilution MIC; type: cell-based; conditions: Staphylococcus aureus; Table 15
# [3] = tested on: Bacillus anthracis 14578; test: microbe, parasite or virus in culture; type: cell-based; conditions: Bacillus anthracis, 14578, read-out: MIC Bacillus anthracis 14578
# [4] = tested on: E. faecium 49624; test: microbroth dilution MIC; type: cell-based, Enterococcus faecium; conditions: Enterococcus faecium, ATCC49624; Table 15; read-out: MIC Enterococcus faecium ATCC 49624
# [5] = tested on: B. subtilis 1A757; test: microbe, parasite or virus in culture; type: cell-based, Bacillus subtilis; conditions: for MIC: Bacillus subtilis, read-out: MIC B. subtilis 1A757
# [6] = tested on: Plasmodium falciparum strain CSC-1 (Honduras); test: antimalarial assay, 3H-phenylalanine radiobioassay in human red blood cells; conditions: Plasmodium falciparum, Erythrocyte, read-out: IC50 Plasmodium falciparum
# [7] = tested on: Shigella dysenteriae ATCC 11835; test: microbroth dilution MIC; type: cell-based; conditions: ATCC11835, Table 15, read-out: MIC Shigella dysenteriae ATCC 11835
# [8] = tested on: Staphylococccus aureus 27734; test: microbroth dilution MIC; type: cell-based, Staphylococcus aureus; conditions: Staphylococcus aureus, ATCC27734; Table 15; read-out: MIC Staphylococcus aureus ATCC 27734
# [9] = tested on: S. epidermis 12228; test: microbroth dilution MIC; type: cell-based, Staphylococcus epidermidis; conditions: Staphylococcus epidermidis, ATCC12228; Table 15; read-out: MIC Staphylococcus epidermidis ATCC 12228
# [10] = tested on: RNA synthesis in Bacillus subtilis; test: macromolecular synthesis whole cell assay, [3H]uridine incorporation; type: cell-based; conditions: 1×MIC
# [11] = tested on: S. aureus 29213; test: microbroth dilution MIC; type: cell-based, Staphylococcus aureus; conditions: Staphylococcus aureus, ATCC29213; Table 15; read-out: MIC Staphylococcus aureus ATCC 29213
# [12] = tested on: S. aureus ATCC 6583P; test: MIC with and without double stranded DNA; type: cell-based, Staphylococcus aureus; conditions: Staphylococcus aureus, ATCC6583P, read-out: MIC S. aureus ATCC 6583P
# [13] = tested on: E. faecalis 29212; test: microbroth dilution MIC; type: cell-based, Enterococcus faecalis; conditions: Enterococcus faecalis, ATCC29212; Table 15; read-out: MIC Enterococcus faecalis ATCC 29212
# [14] = tested on: Listeria monocytogenes 19115; test: microbroth dilution MIC; type: cell-based; conditions: Listeria monocytogenes, ATCC19115; Table 15; read-out: MIC Listeria monocytogenes ATCC 19115
# [15] = tested on: Bacillus anthracis 62-8; test: microbe, parasite or virus in culture; type: cell-based; conditions: Bacillus anthracis, 628, read-out: MIC Bacillus anthracis 62-8
# [16] = tested on: Streptococcus pneumoniae ATCC 70674; test: microbroth dilution MIC; type: cell-based; conditions: ATCC70674, Table 15, read-out: MIC Streptococcus pneumoniae ATCC 70674
# [17] = tested on: DNA synthesis in Bacillus subtilis; test: macromolecular synthesis whole cell assay, [3H]thymidine incorporation; type: cell-based; conditions: 5 min; 1×MIC
# [18] = tested on: Human Breast Cancer Epithelial BT-20; test: CellTiter 96 Aqueous Non-Radioactive Cell Proliferation Assay; type: cell-based; conditions: for IC50: Homo sapiens
# [19] = tested on: Human Cervical Cancer Epithelial ME180; test: as above; type: cell-based; conditions: Homo sapiens, ME-180, read-out: IC50 Human Cervical Cancer Epthelial ME180
# In short: (§1)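 Cells rested 5 h at 37° C after seeding, then treated in triplicate with two-fold serial dilutions of compound. A-549 and ME-180 were exposed for 48 h. After 1–4 h MTS reagent at 37° C, OD490 was read and corrected by subtracting medium-only blanks.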
# [20] = tested on: Human Lung Cancer Epithelial A549; test: as above; type: cell-based; conditions: Homo sapiens, A549, read-out: IC50 Human Lung Cancer Epithelial A549
# In short: as §1
# [21] = tested on: Human Primary Mammary Epithelial HMEC; test: as above; type: cell-based; conditions: Homo sapiens, HMEC, read-out: IC50 Human Primary Mammary Epithelial HMEC, Table 12
# [22] = as above; type: cell-based, human; conditions: human, read-out: IC50 cytotoxicity, human mammary epithelial cells
# [23] = tested on: Streptococcus pneumoniae ATCC 70676; test: microbroth dilution MIC; type: cell-based; conditions: ATCC70676, Table 15, read-out: MIC Streptococcus pneumoniae ATCC 70676
# [24] = tested on: Staphylococcus aureus GISA, ATCC 700787; test: microbroth dilution MIC; type: cell-based; conditions: ATCC700787, Table 15, read-out: MIC Staphylococcus aureus GISA, ATCC 700787
# [25] = tested on: Bacillus anthracis 40/BA 100; test: microbe, parasite or virus in culture; type: cell-based; conditions: 40/BA100, read-out: MIC Bacillus anthracis 40/BA 100
# [26] = tested on: Streptococcus pneumoniae 49619; test: microbroth dilution MIC; type: cell-based; conditions: Streptococcus pneumoniae, ATCC49619; Table 15; read-out: MIC Streptococcus pneumoniae ATCC 49619
# [27] = tested on: Listeria monocytogenes 19114; test: microbroth dilution MIC; type: cell-based; conditions: Listeria monocytogenes, ATCC19114; Table 15; read-out: MIC Listeria monocytogenes ATCC 19114
# [28] = tested on: Enterococcus faecalis ATCC 51299 (VRE); test: microbroth dilution MIC; type: cell-based; conditions: Enterococcus faecalis; Table 15
# [29] = tested on: Bacillus anthracis 28; test: microbe, parasite or virus in culture; type: cell-based; conditions: Bacillus anthracis, 28, read-out: MIC Bacillus anthracis 28
# [30] = tested on: Staphylococccus simulans 11631; test: microbroth dilution MIC; type: cell-based, Staphylococcus simulans; conditions: Staphylococcus simulans, ATCC11631; Table 15; read-out: MIC Staphylococcus simulans ATCC 11631
# [31] = tested on: Protein synthesis in Bacillus subtilis; test: macromolecular synthesis whole cell assay, [3H]amino acid mixture incorporation; type: cell-based; conditions: 1×MIC
compound,measurement,setting,value
"CS[C@H]1SC[C@H]2C(=O)N(C)[C@@H](C(C)C)C(=O)OC[C@@H](NC(=O)c3cnc4ccccc4n3)C(=O)N[C@@H](C)C(=O)N(C)[C@@H]1C(=O)N(C)[C@@H](C(C)C)C(=O)OC[C@@H](NC(=O)c1cnc3ccccc3n1)C(=O)N[C@@H](C)C(=O)N2C [Echinomycin, reference compound]",Solubility in acetonitrile,[1],sparingly soluble
same,MIC,[2],0.5 µg/mL
same,MIC,[3],1.99 µg/mL
same,MIC,[4],≤ 0.062 µg/mL
same,1×MIC against Bacillus subtilis,[5],0.25 micrograms/ml
same,MIC,"[5]; 1A757, DNA +, 20 micrograms per well of sheared salmon sperm DNA",8 µg/mL
same,MIC,"[5]; 1A757, DNA −",0.125 µg/mL
same,IC50,[6],0.00408 ± 0.0001 µg/mL
same,MIC,[7],8 µg/mL
same,MIC,[8],0.25 µg/mL
same,MIC,[9],0.25 µg/mL
same,% [3H]uridine (RNA synthesis) incorporation of that of the untreated culture,[10]; 5 min,41%
same,% [3H]uridine (RNA synthesis) incorporation of that of the untreated culture,[10]; 10 min,37%
same,MIC,[11],0.5 µg/mL
same,MIC,"[12]; DNA +, 20 micrograms per well of sheared salmon sperm DNA",16 µg/mL
same,MIC,[12]; DNA −,0.5 µg/mL
same,MIC,[13],0.125 µg/mL
same,MIC,[14],0.25 µg/mL
same,MIC,[15],1.4 µg/mL
same,MIC,[16],< 0.0325 µg/mL
same,% [3H]thymidine (DNA synthesis) incorporation of that of the untreated culture,[17],1%
same,IC50,"[18]; BT-20, read-out: IC50 Human Breast Cancer Eipthelial BT-20, Table 12",0.0048 µg/mL
same,IC50,"[18]; BT-20, read-out: IC50 human breast cancer cell line BT 20, text of Examples 15, 18, 19",0.0048 µg/mL
same,IC50 human breast cancer cell line BT 20,"[18]; text of Examples 15, 18, 19, listed as echnimonycin",0.0065 µg/mL
same,IC50,[19],0.023 µg/mL
same,IC50,[20],0.145 µg/mL
same,IC50,[21],0.0108 µg/mL
same,IC50 at 48 h,[22]; Example 15,0.0108 ± 0.0011 µg/mL
same,IC50 at 48 h,"[22]; text of Examples 18, 19",4.8 µg/mL
same,MIC,[23],< 0.0325 µg/mL
same,MIC,[24],1 µg/mL
same,MIC,[25],1.4 µg/mL
same,MIC,[26],< 0.0325 µg/mL
same,MIC,[27],0.5 µg/mL
same,MIC,[28],0.125 µg/mL
same,MIC,[29],2.4 µg/mL
same,MIC,[30],0.25 µg/mL
same,% [3H]amino acid mixture (Protein synthesis) incorporation of that of the untreated culture,[31]; 5 min,73%
same,% [3H]amino acid mixture (Protein synthesis) incorporation of that of the untreated culture,[31]; 10 min,62%
